Data set [1] relates to human no small cell lung carcinoma NCI-H460. Kind of data set: Antitumoral activity in human no small cell lung carcinoma model NCI-H460. The settings on record: NCI-H460, 15 mg/kg ip, q7dx3. Format: in vivo. On the procedure: The ST1926 solution was prepared immediately before use and solubilised in cremophor:ethanol 1:1 and subsequently diluted 1:4 in buffered saline solution. The animal treatments were administered in a volume of 10 ml/kg. […] Measurements of tumor dimensions were performed using a digital calliper (Vernier Caliper) twice weekly, from the time in which the mass was measurable. The tumor mass was evaluated from the size of the two principal dimensions (length and breadth), expressed in mm, applying the formula (length×breadth^2)/2, that is, the tumor volume in mm3. For each experimental group, the percentage of tumor volume inhibition was calculated (TVI %), with respect to the control, namely (100−(T/C %). TVI was evaluated 2 days after the final administration of ST1926.
A comparison between the TVI values obtained for each group was performed using the non parametric Mann Whitney test for non-paired data, using the Instat software from GraphPad inc.

Data set [2] deals with human microvascular endothelial (HMVE) cells. The following applies: after 96 h of treatment, cited from earlier work; for inhibition (%) at 0.5 μM: relative to vehicle alone control; for IC50: highest concentration evaluated 0.5 μM, read-out: IC50 (concentration inhibiting proliferation by 50%).
Data set [3] relates to chicken chorioallantoic membrane vessels, bFGF induced. The experiment in a line: Angiostatic activity in chicken chorioallantoic membrane (CAM) model. Format: in vivo. The following applies: for 12th day (72 hours), number of vessels per sponge / Δvessels: mean ± SE. An excerpt: The chicken chorioallantoic membrane is a very vascularised membrane in which the vessels make their appearance at the 4th day of development, develop an arteriovenal system by the 8th day of development, and actively proliferate until the 11th day.
The aim of the study was to follow vasal development in the CAM under basal conditions and in the presence of an inducer bFGF (basic Fibroblast Growth Factor) of vasoproliferation. This study used chicken embryonal eggs at the initial stage of their development. On the 3rd day of development an operation to open the shells was performed to make the vessels of the CAM visible. The treatment was administered on the 9th day of development by applying a fragment of sterile gelatine (GELFOAM Pharmacia-Upjohn) about 1 mm^3, to the CAM surface, onto which was administered the bFGF (50 ng/embryo) or the products in question, for 3 consecutive days.
The evaluation of the effect of the molecule on vasoproliferation was obtained by a comparison of the vessels at the time of zero treatment with these of later times (12th day).

For another data set, the system named is NB4 cells. The experiment in a line: Pro-differentiating effect on NB4 cells (NBT). Format: cell-based. The following applies: Homo sapiens, NB-4, 72 h, NB4, three days, read-out: AC50 (activating concentration for 50% cellular differentiation) ± SD. On the procedure: NB4 cells were plated at a density of 150000 cells/ml in RPMI 1640 medium containing 10% foetal serum. The cells were then treated with ST1879 or ST1898 at decreasing concentrations starting from 0.4 μM to 0.01 μM and placed in an incubator for three days without any change of the media. To measure the differentiating effect 500000 cells from each sample were collected, centrifuged and resuspended in 1 ml of RPMI 1640 medium containing 10% serum, 1 mg/ml nitroblue tetrazolium (NBT) and 100 ng of PMA (phorbol myristyl acetate). The cells, resuspended as above, were incubated at 37° C. for 60 minutes. At the conclusion of incubation the cells were centrifuged and the precipitate resuspended in 1 ml of PBS containing 10% Triton ×100. The samples were sonicated until lysed and then read by spectrophotometer at a wavelength of 540 nm. Samples containing differentiated cells turn a purplish colour whilst the control samples and/or these with non differentiated cells remain white or much less intensely coloured. The pro-differentiating action of ST1879 or of ST1898 has been evaluated in terms of AC50 (activating concentration for 50% cellular differentiation) as reported below.

Data set [4] relates to NB4 acute promyelocytic leukaemia cell line. The experiment in a line: Cytotoxicity test (sulphorodamine B), NB4. Type of data set: cell-based, human. The following applies: Homo sapiens, 24 h incubation, survival 48 h after removal, read-out: IC50 ± SD. The source says:
To carry out the cytotoxicity tests, two acute promyelocytic leukaemia (APL) cell lines were used. • 1. Cell line NB4, carrying the chromosomal translocation t(15; 17) which generates the fusion protein PML/RARα. This cell line is extremely sensitive to the differentiating action of pharmaceutical doses of ATRA (10^−7-10^−6 M); • 2. Cell line HL60, which responds to ATRA less sensitively with respect to cell line NB4.
These cell lines were maintained in RPMI 1640 containing 10% foetal calf serum (FCS) and 1% glutamine.
The cytotoxicity tests were carried out using NB4 or HL-60 cells in suspension (10000/well). The cells were seeded in a volume of 250 μl in 96 well plates and incubated for 24 hours at 37° C. The following day, test compound ST 1926 [(2E)-3-[3′-(1-Adamantyl)-4′-hydroxy[1,1′-biphenyl]-4-yl]-2-propenoate/ic acid] was added at increasing concentrations, and the cells were incubated for a further 24 hours at 37° C. in a humidified atmosphere containing 5% CO2. On the 3rd day, the medium was removed by centrifuging the plate at 1600×g for 10 min and the supernatant decanted. 250 μl of PBS were added; then the plates were centrifuged again at 1600×g for 10 minutes and the supernatant decanted. 200 μl/well of RPMI 1640 medium containing 10% FCS were added and the plates were incubated at 37° C. for a further 48 hours. On the 5th day, the plates were again centrifuged at 1600×g for 10 minutes, and the medium was removed by upturning the plates, 200 μl of PBS and 50 μl of cold, 80% TCA were added. The plates were then left to incubate on ice for at least 1 hour. The TCA was removed by upturning; the plates were washed three times by immersion in distilled water and dried first on paper, then with a jet of hot air. To all wells were added 200 μl of 0.4% sulphorodamine B in 1% acetic acid. The plates were incubated at room temperature for a further 30 minutes. […] The optical density was measured using a Multiskan spectrophotometer at 540 nm.
(§1) Cell survival was determined by incubation with ST1926 for 24 hours, 48 hours after the removal of the compound. […]

Data set [5] has as its system Human prostate carcinoma PC3. The experiment in a line: Cytotoxicity test (sulphorodamine B), PC3. Type of data set: cell-based. The following applies: 24 h incubation, survival 48 h after removal, read-out: IC50 ± SD.
Source text: (§2) Different cell lines deriving from solid tumors were also used. • 1. Human prostate carcinoma PC3 and DU145. These cell lines were maintained in RPMI 1640 medium containing 10% FCS, 1% sodium pyruvate and 1% glutamine; • 2. Human colon adenocarcinoma LoVo. This cell line was maintained in HAM's F-12 medium, containing 10% FCS and 1% glutamine. • 3. Human ovarian carcinoma such as A2780 and A2780/Dx, sensitive and resistant to drugs, respectively (doxorubicin, taxol, etoposide, vincristine); IGROV-1 and IGROV-1/Pt, sensitive and resistant to platinum-based chemotherapy, respectively, were maintained in RPMI 1640 medium containing 10% FCS, 1% sodium pyruvate and 1% glutamine; • 4. Human melanoma MeWo and MeS 2.21, glioblastoma GBM, no small cell lung carcinomas A431, NCI—H460, osteosarcomas SAOS and U2OS were maintained in RPMI 1640 medium containing 10% FCS, 1% sodium pyruvate and 1% glutamine.
(§3) The cytotoxicity tests were carried out using NB4 or HL-60 cells in suspension (10000/well). The cells were seeded in a volume of 250 μl in 96 well plates and incubated for 24 hours at 37° C. […] The optical density was measured using a Multiskan spectrophotometer at 540 nm. […]
as §1

Data set [6] relates to Human colon adenocarcinoma LoVo. Kind of data set: Cytotoxicity test (sulphorodamine B), LoVo. The settings on record: 24 h incubation, survival 48 h after removal, read-out: IC50 ± SD. Format: cell-based.
Source text: as §2, §3, §1

The mark [7] stands for this setting: bFGF 0.05 + compound 0.25 μg/embryo.

Values joined by “and” are separate entries in the source; they are usually repeats but may differ in a detail not shown here. Equal entries are not always repeated.

In general, melting point refers to the temperature of the solid-liquid transition.

For the compound `CC(=O)O[C@H]1C(=O)[C@@]2(C)[C@H]([C@H](OC(=O)c3ccccc3)[C@]3(O)C[C@H](OC(=O)[C@H](O)[C@@H](NC(=O)c4ccccc4)c4ccccc4)C(C)=C1C3(C)C)[C@]1(OC(C)=O)CO[C@@H]1C[C@@H]2O` [Taxol, reference compound], in data set [1], the “BWL % Max” value came to 4%, the Lethality is on record as 0/8 and the “TVI % ± SE” value came to 0%.

Take `COc1ccc(-c2ccc(/C=C/CO)cc2)cc1C12CC3CC(CC(C3)C1)C2` [Example 7, E-4-(3-(1-adamantyl)-4-methoxyphenyl)cinnamyl alcohol]: the melting point worked out at 148 °C.

Regarding `CC1=C(/C=C/C(C)=C/C=C/C(C)=C/C(=O)O)C(C)(C)CCC1` [trans-RA (7), trans-Retinoic Acid], in data set [2], the “inhibition (%) at 0.5 μM” value is reported as 10% and the IC50 is more than 500 nM.

Consider `O=C(O)c1ccc2c(Cl)c(-c3ccc(O)c(C45CC6CC(CC(C6)C4)C5)c3)ccc2c1` [5-Cl-AHPN (2)], for which, in data set [2], the “inhibition (%) at 0.5 μM” value is 45%.

On to `O=C(O)/C=C/c1ccc(-c2ccc(O)c(C34CC5CC(CC(C5)C3)C4)c2)c(Cl)c1` [3-Cl-AHPC (5)], for which, in data set [2], the “inhibition (%) at 0.5 μM” value was 60% and the IC50 was 300 nM.

As for “bFGF: basic Fibroblast Growth Factor, inducer of vasoproliferation in the CAM model [reference compound]”, in data set [3] (bFGF 0.05 μg/embryo alone), the “12th day (72 hours), number of vessels per sponge” value was 28 ± 2 vessels per sponge and 19 ± 1 vessels per sponge and 22 ± 1 vessels per sponge; the Δvessels is 24 ± 1 vessels per sponge and 15 ± 1 vessels per sponge and 19 ± 1 vessels per sponge.

`COc1ccc(-c2ccc(/C=C/C(=O)O)cc2)cc1C12CC3CC(CC(C3)C1)C2` [ST1898, E-4-(3-(1-adamantyl)-4-methoxyphenyl)cinnamic acid]: the AC50 with NB4 cells came out at 19 nM. For the same compound, in data set [3] (setting [7]), the “Δvessels, change vs bFGF alone” value is on record as “(−71%)”; the “12th day (72 hours), number of vessels per sponge” value came to 10 ± 1 vessels per sponge; the Δvessels was determined as 7 ± 1 vessels per sponge. For the same compound, the IC50 in data set [4] was 8.8 ± 0.6 µM. Besides, in data set [5], the IC50 was 1700 ± 200 nM. Moreover, the IC50 in data set [6] is 380 ± 20 nM.
